{"source": "patent US20050074834A1", "about": "(priority 2001, published 2005)", "note": "“Also recorded” adds a separate entry of the source. No end group written: not given here."}
{"system": "Betta splendens erythrophores", "assay": "not given", "type": "cell-based", "conditions": "not given"}
{"molecule": "C[C@H](CCC(=O)O)C[C@H](C)C[C@H](C)C(=O)/C=C(\\O)[C@H](C)C[C@H](C)C/C=C/[C@@H](C)[C@@H](O)[C@@H](C)[C@@H](O)C[C@@H]1CC[C@@](C)([C@H]2CC[C@@](C)([C@@H](C)O)O2)O1", "note": "[Ionomycin]", "Morphology Effect: Aggregation": "Yes", "Morphology Effect: Dispersion": "No", "erythrophore pigment response on addition": "slight, but sustained aggregation"}
{"molecule": "μ-Conotoxin GVIA", "Morphology Effect: Aggregation": "No", "Morphology Effect: Dispersion": "No"}
{"molecule": "COc1ccc(CCN(C)CCCC(C#N)(c2ccc(OC)c(OC)c2)C(C)C)cc1OC", "note": "(stereo not shown) [Verapamil]", "Morphology Effect: Aggregation": "No", "Morphology Effect: Dispersion": "Yes", "erythrophore pigment dispersion response, control": "failed to induce pigment dispersion response", "erythrophore pigment response after norepinephrine pre-treatment": "produces pigment dispersion", "erythrophore response to verapamil": "rapid dispersion; also recorded: disperse almost as completely as possible; also recorded: pigment dispersion; also recorded: larger dispersion"}
{"molecule": "COC(=O)C1=C(C)NC(C)=C([N+](=O)[O-])C1c1ccccc1C(F)(F)F", "note": "(stereo not shown) [Bay K8644]", "erythrophore pigment response on direct application": "neither the aggregation nor dispersion of erythrophore pigment"}
{"molecule": "C/C=C(/C)C(=O)O[C@H]1C(C)=C2[C@H]([C@@H]1OC(=O)CCCCCCC)[C@@](C)(OC(C)=O)C[C@H](OC(=O)CCC)[C@@]1(O)[C@H]2OC(=O)[C@@]1(C)O", "note": "[Thapsigargin]", "Morphology Effect: Aggregation": "Yes", "Morphology Effect: Dispersion": "No"}
{"molecule": "CNc1ccc2oc(C[C@H]3O[C@@]4(CC[C@H]3C)O[C@H]([C@H](C)C(=O)c3ccc[nH]3)[C@H](C)C[C@H]4C)nc2c1C(=O)O", "note": "[A23187]", "Morphology Effect: Aggregation": "No", "Morphology Effect: Dispersion": "No"}
{"molecule": "CC(=O)OCOC(=O)CN(CC(=O)OCOC(C)=O)c1ccccc1OCCOc1ccccc1N(CC(=O)OCOC(C)=O)CC(=O)OCOC(C)=O", "note": "[BAPTA/AM]", "Morphology Effect: Aggregation": "No", "Morphology Effect: Dispersion": "Yes", "erythrophore pigment response on addition": "pigment dispersion"}
{"system": "chromatophores", "assay": "cells", "conditions": "read-out: Threshold concentration PPM", "units": {"minimal effective concentration": "µg/mL"}}
{"molecule": "NCCc1c[nH]c2ccc(O)cc12", "note": "[Serotonin]", "minimal effective concentration": "1 to 100"}
{"molecule": "CC(=O)OCC[N+](C)(C)C", "note": "[Acetylcholine]", "minimal effective concentration": "1 to 100"}
{"molecule": "NCCc1ccc(O)c(O)c1", "note": "[Dopamine]", "minimal effective concentration": "100 to 1000"}
{"molecule": "CNCCCN1c2ccccc2CCc2ccccc21", "note": "[Desipramine]", "minimal effective concentration": "1 to 100"}
{"molecule": "NCCc1c[nH]cn1", "note": "[Histamine]", "minimal effective concentration": "100 to 1000"}
{"molecule": "Nc1ncnc2c1ncn2[C@@H]1O[C@H](CO)[C@@H](O)[C@H]1O", "note": "[Adenosine]", "minimal effective concentration": "100 to 1000"}
{"molecule": "CN(C)CCC(c1ccccc1)c1ccccn1", "note": "(stereo not shown) [Pheniramine]", "minimal effective concentration": "100 to 1000"}
{"molecule": "c1cc2ccc3cccc4ccc(c1)c2c34", "note": "[Pyrene]", "minimal effective concentration": "1 to 100"}
{"molecule": "COc1cc2c(c(OC)c1OC)-c1ccc(OC)c(=O)cc1[C@@H](NC(C)=O)CC2", "note": "[Colchicine]", "minimal effective concentration": "100 to 1000"}
{"molecule": "OO", "note": "[Hydrogen peroxide]", "minimal effective concentration": "100 to 1000"}
{"molecule": "c1ccc2c(c1)-c1cccc3cccc-2c13", "note": "[Fluoranthene]", "minimal effective concentration": "1 to 100"}
{"molecule": "C=O", "note": "[Formaldehyde]", "minimal effective concentration": "100 to 1000"}
{"molecule": "COC(=O)[C@@]1(O)C[C@H]2O[C@]1(C)n1c3ccccc3c3c4c(c5c6ccccc6n2c5c31)C(=O)NC4", "note": "[Protein kinase inhibitor K252a]", "minimal effective concentration": "1 to 100"}
{"molecule": "CC(N)Cc1ccccc1", "note": "(stereo not shown) [Amphetamine]", "minimal effective concentration": "1 to 100"}
{"system": "chromatophores", "assay": "not given", "conditions": "not given"}
{"molecule": "NCCc1c[nH]c2ccc(O)cc12", "note": "[Serotonin]", "Chromatophore response (cell spans the chromatophore type columns)": "Partial Aggr."}
{"molecule": "CCOP(=S)(Oc1ccc([N+](=O)[O-])cc1)c1ccccc1", "note": "(stereo not shown) [EPN]", "Response time Hr.": "X (key: X=1-6 hr; XX=6-24 hr)", "Threshold concentration PPM": "XX (key: X=1 to 100 PPM; XX=100 to 1000 PPM)"}
{"molecule": "Substance P (RPKPQQFFGLM; ends and bridges not checked; UniProt P20366 58-68, looked up)", "Chromatophore response (cell spans the chromatophore type columns)": "Hue changes (FS)"}
{"molecule": "[Ni]", "note": "[Ni]", "Chromatophore response (cell spans the chromatophore type columns)": "Imp. (FS)", "Threshold concentration PPT": "X (key: X=1 PPT or higher)"}
{"molecule": "CC(COc1ccccc1)N(CCCl)Cc1ccccc1", "note": "(stereo not shown) [Phenoxy-benzamine]", "Chromatophore response (cell spans the chromatophore type columns)": "Blocks norepinephrine"}
{"molecule": "[Ag]", "note": "[Ag]", "Chromatophore response (cell spans the chromatophore type columns)": "Imp. (FS)", "Threshold concentration PPT": "X (key: X=1 PPT or higher)"}
{"molecule": "NCCc1ccc(O)c(O)c1", "note": "[Dopamine]", "Chromatophore response (cell spans the chromatophore type columns)": "Aggr. (FS)"}
{"molecule": "[Cu]", "note": "[Cu]", "Chromatophore response (cell spans the chromatophore type columns)": "Imp. (FS)", "Threshold concentration PPT": "X (key: X=1 PPT or higher)"}
{"molecule": "COc1ccc(CCN(C)CCCC(C#N)(c2ccc(OC)c(OC)c2)C(C)C)cc1OC", "note": "(stereo not shown) [Verapamil]", "Threshold concentration PPB": "X (key: X=1 to 100 PPB; XX=100 to 1000 PPB)"}
{"molecule": "CNCCCN1c2ccccc2CCc2ccccc21", "note": "[Desipramine]", "Chromatophore response (cell spans the chromatophore type columns)": "Aggr. (FS)"}
{"molecule": "[Pb]", "note": "[Pb]", "Chromatophore response (cell spans the chromatophore type columns)": "Imp. (FS)", "Threshold concentration PPT": "X (key: X=1 PPT or higher)"}
{"molecule": "CCCCCCC(C)(C)c1ccc([C@@H]2C[C@H](O)CC[C@H]2CCCO)c(O)c1", "note": "[Cannabinoid CP-55940, CP-55940]", "Chromatophore response (cell spans the chromatophore type columns)": "Disp. (FS)"}
{"molecule": "Nc1ncnc2c1ncn2[C@@H]1O[C@H](CO)[C@@H](O)[C@H]1O", "note": "[Adenosine]", "Chromatophore response (cell spans the chromatophore type columns)": "Disp."}
{"molecule": "COC(=O)[C@@H]1[C@H]2C[C@H]3c4[nH]c5ccccc5c4CCN3C[C@@H]2CC[C@@H]1O", "note": "[Yohimbine]", "Chromatophore response (cell spans the chromatophore type columns)": "Blocks norepinephrine"}
{"molecule": "C=C(C=O)C[C@@H]1C[C@H](O)[C@]2(C)O[C@@H]3C[C@@H]4O[C@@H]5C[C@]6(C)O[C@]7(C)CC[C@@H]8O[C@@H]9C[C@]%10(C)O[C@@H]%11C(C)=CC(=O)O[C@H]%11C[C@H]%10O[C@H]9C[C@@H](C)[C@H]8O[C@H]7C[C@H]6O[C@H]5C/C=C\\[C@H]4O[C@H]3C[C@H]2O1", "note": "[Brevetoxin]", "Chromatophore response (cell spans the chromatophore type columns)": "Aggr. (FS)", "Response time Hr.": "X (key: X=1-6 hr; XX=6-24 hr)", "Threshold concentration PPM": "X (key: X=1 to 100 PPM; XX=100 to 1000 PPM)"}
{"molecule": "OO", "note": "[Hydrogen peroxide]", "Chromatophore response (cell spans the chromatophore type columns)": "Imp. (FS)"}
{"molecule": "O=C(O)c1ccccc1O", "note": "[Salicylate]", "Chromatophore response (cell spans the chromatophore type columns)": "Imp. (FS)", "Threshold concentration PPM": "XX (key: X=1 to 100 PPM; XX=100 to 1000 PPM)"}
{"molecule": "CC(N)Cc1ccccc1", "note": "(stereo not shown) [Amphetamine]", "Chromatophore response (cell spans the chromatophore type columns)": "Aggr. (FS)"}
{"molecule": "Cc1ccc(N(CC2=NCCN2)c2cccc(O)c2)cc1", "note": "[Phentolamine]", "Chromatophore response (cell spans the chromatophore type columns)": "Blocks norepinephrine"}
{"molecule": "N", "note": "[Ammonium]", "Chromatophore response (cell spans the chromatophore type columns)": "Imp. (FS)", "Threshold concentration PPM": "XX (key: X=1 to 100 PPM; XX=100 to 1000 PPM)"}
{"molecule": "C=CC[C@@H](CC/C(C)=C/C=C/CC/C=C\\[C@@H]1CSC([C@@H]2C[C@@H]2C)=N1)OC", "note": "[Curacin A]", "Chromatophore response (cell spans the chromatophore type columns)": "Aggr. and Imp. (FS)", "Response time Hr.": "X (key: X=1-6 hr; XX=6-24 hr)", "Threshold concentration PPM": "X (key: X=1 to 100 PPM; XX=100 to 1000 PPM)"}
